The values below are quoted from earlier work in US20090105632A1 (priority 2007, published 2009).

The conditions of data set [1]: 10 mM citrate buffer at pH 5.
The subject of another data set is Parkinson's disease. The conditions noted are these: lisuride administration at about 1.1 mg/day.
For data set [2] the following is noted: oral route, metabolized by the liver.

For the molecule `CCN(CC)C(=O)N[C@H]1C=C2c3cccc4[nH]cc(c34)C[C@H]2N(C)C1` [lisuride, N′-[(8α)-9,10-didehydro-6-methylergolin-8-yl]-N,N-diethylurea], the pKa entry is listed as “about 8”. Also, in data set [1], the solubility result is recorded as “about 1.8 mg/ml”. Also, the antiparkinsonian response result in the data set on Parkinson's disease was “equal to that achieved with doses of levopoda monotherapy of 668 mg/day”. For the same molecule, in data set [2], the bioavailability result was “about 25%”.
